Earlier results on 4 molecules are cited in article PMC9371267 (PLoS Biology, 2022).

The subject of one series is GALRs. The following applies: Trp2 replaced with alanine; ref [4]; cited from earlier work. An excerpt: (§1) Activated GPCRs act as nucleotide exchange factors through direct interactions with heterotrimeric G-proteins. The C-terminal helix of mGαqiN fits into a hydrophobic pocket formed by TM 5–7 of GALR2 (Fig 1B). Phe228, Ile235, Asn239, and Tyr243 of mGαqiN form the principal interface with GALR2, and a salt bridge forms between Glu135^ICL2 of GALR2 and Arg32 of mGαqiN (Fig 1B). […] The modeled fra ...

The subject of the next series is GALR2. The note with it: endogenous ligands; ref [13]; cited from earlier work.
Excerpt: as §1

The next series relates to GALR2 and GALR3 vs GALR1. The following applies: ref [3],[14]; cited from earlier work. An excerpt:
Phe264 and Leu266 in ECL3 contact Leu10^P and Trp2^P ...

Another series deals with GALR2 vs GALR1. The following applies: GALR2 over GALR1; ref [3]–[5]; cited from earlier work. An excerpt:
Its GPCR family receptors (from GALR1 to GALR3) are associated with different disease states and have been used as markers for certain cancer types. […] Agonists for GALR2 are be ...

With “Trp2^P of galanin with alanine: galanin with Trp2^P replaced with alanine (GATLNSAGYLLGPHAVGNHRSFSDKNGLTS; Galanin; UniProt P22466 33-62, looked up, variant W2A)”, the “binding to GALRs” value in the series with GALRs is listed as “prevents binding to GALRs”.

As for “galanin-like peptide (APAHRGRGGWTLNSAGYLLGPVLHLPQMGDQDGKRETALEILDLWKAIDGLPYSHPPQPS; Galanin-like peptide; UniProt Q9UBC7 25-84, looked up) [GALP]”, in the series with GALR2, the “activation of GALR2” value is recorded as “activate GALR2”.

Regarding “galanin^2–11: truncated peptide galanin^2–11”, in the series on GALR2 and GALR3 vs GALR1, the receptor specificity result was “specificity for GALR2 and GALR3 over GALR1”. Besides, the “binds to GALR2 more tightly than GALR1” value with GALR2 vs GALR1 was “roughly 500 times”.

B1: spexin (peptide, UniProt Q9BT56 27-116, looked up)
Spexin: APQRLLERRNWTPQAMLYLKGAQGRRFISDQSRRKDLSDRPLPERRSPNPQLLTIPEAATILLASLQKSPEDEEKNFDQTRFLEDSLLNW
modifications: Spexin
With B1, in the series with GALR2, the “activation of GALR2” value was “activate GALR2”.
